{"source": "patent US8436159B2", "about": "“Glyphosate resistant class I 5-endolpyruvylshikimate-3-phosphate synthase (EPSPS)” (Monsanto Technology LLC, priority 2003, dated 2013)", "molecular_target": "T1, maize (Zea mays) class I EPSPS, wild type (WT), pMON70461, DNA SEQ ID NO:3 (Zea mays, UniProt O24566)", "T1 construct": "pMON70461", "T1 sequence (O24566 with tags, fused parts or gaps)": "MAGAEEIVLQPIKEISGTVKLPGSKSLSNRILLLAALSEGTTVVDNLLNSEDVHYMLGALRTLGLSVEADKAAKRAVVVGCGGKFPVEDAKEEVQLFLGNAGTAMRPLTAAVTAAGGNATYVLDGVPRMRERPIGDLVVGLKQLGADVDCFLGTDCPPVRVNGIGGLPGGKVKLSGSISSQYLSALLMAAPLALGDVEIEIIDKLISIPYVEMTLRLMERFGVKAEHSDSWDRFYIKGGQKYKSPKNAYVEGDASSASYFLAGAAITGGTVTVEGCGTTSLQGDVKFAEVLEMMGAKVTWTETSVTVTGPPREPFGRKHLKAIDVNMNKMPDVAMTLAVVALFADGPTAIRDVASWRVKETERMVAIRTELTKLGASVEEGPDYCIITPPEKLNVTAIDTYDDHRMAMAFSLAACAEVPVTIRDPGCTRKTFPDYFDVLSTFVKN", "experiment": "EPSPS steady-state kinetics, wild-type maize EPSPS", "assay_type": "biochemical", "experimental": "The wild type and variant EPSPS coding sequences were cloned into a pET-19b base vector (Novagen, Madison, Wis.). The plant (maize) class I EPSPS variants so created were assigned pMON plasmid numbers (Table 2). The variant EPSPS proteins were purified from the E. coli host using the protocols outlined in the pET system manual, 9th edition (Novagen) or by the following method. A single colony or a few microliters from a glycerol stock was inoculated into 4 mL LB medium containing 0.1 mg/mL carbenicillin antibiotic. The culture was incubated with shaking at 37 C for 4 hours. The cultures were stored at 4° C. overnight. The following morning, 1 mL of the overnight culture was used to inoculate 100 mL of fresh LB medium containing 0.1 mg/mL carbenicillin. The cultures were incubated with shaking at 37 C for 4-5 hours, then the cultures were placed at 4° C. for 5-10 minutes. The cultures were then induced with IPTG (1 mM final concentration) and incubated with shaking at 30 C for 4 hours or 20° C. overnight. The cells were harvested by centrifugation at 7000 rpm for 20 minutes at 4° C. The supernatant was removed and the cells were frozen at −70° C. until further use. The proteins were extracted by resuspending the cell pellet in BugBuster reagent (Novagen) using 5 mL reagent per gram of cells. Benzonase (125 Units) was added to the resuspension and the cell suspension was then incubated on a rotating mixer for 20 minutes at room temperature. The cell debris was removed by centrifugation at 10,000 rpm for 20 minutes at room temperature. The supernatant was passed through a 0.45 μm syringe-end filter and transferred to a fresh tube. A pre-packed columns containing 1.25 mL of His-Bind resin was equilibrated with 10 mL of 5 mM imidazole, 0.5 M NaCl, 20 mM Tris-HCl pH 7.9 (1× Binding Buffer). The column was then loaded with the prepared cell extract. After the cell extract had drained, the column was then washed with 10 mL of 1× Binding Buffer, followed with 10 mL of 60 mM imidazole, 0.5 M NaCl, 20 mM Tris-HCl pH 7.9 (1× Wash Buffer). […]"}
{"compound": "O=C(O)CNCP(=O)(O)O", "note": "[glyphosate, N-phosphonomethylglycine]", "values": [{"measurement": "Ki", "value": "500 ± 60", "unit": "nM"}]}
